Results from US6448240B1, “Synergistic fungicidal and/or bactericidal composition” (Aventis CropScience, S.A., priority 1997, dated 2002).

System: Plasmopara viticola (grapevine downy mildew)
Experiment: In-vivo test of famoxadone and fosetyl-aluminium on grapevine downy mildew, preventative treatment 5 days before inoculation
Set-up: species or system Plasmopara viticola on Vitis vinifera cv. Chardonnay
Conditions: 5-day-preventative spray on grapevine cuttings; evaluated 7 days after inoculation; 3 replications
Experimental: Example 1: In-vivo test of the combination of famoxadone and fosetyl-aluminium on Plasmopara viticola (grapevine downy mildew) by preventative treatment 5 days before inoculation. Dispersible granules of 50% compound A (famoxadone) and dispersible granules of 80% compound B (fosetyl-aluminium) are used. Dilute suspensions are prepared from these compositions by diluting them with water, and the two liquids are mixed in such a way that different ratios of the two products famoxadone and fosetyl are obtained. The A/B ratios studied were selected between 1/10 and 1/1, that is to say equalling 0.1-0.2 and 1. Grapevine cuttings (Vitis vinifera), cv. Chardonnay are grown in pots. When these plants are 2 months old (8- to 10-leaf stage, height 10 to 15 cm), they are treated by being sprayed with the suspension above. […] These spores are suspended at 100,000 units per cm^3 of inoculum. Inoculation is performed by spraying the underside of the leaves with the inoculum. The inoculated plants are then incubated for seven days at 20-22° C. and a relative humidity of 90-100% under natural light. The test is evaluated 7 days after inoculation by comparing the plants with the control plants.

Row | SMILES | ED70 (effective dose which has a 70% control effect on the disease) [µg/mL] | ED90 (effective dose which has a 90% control effect on the disease) [µg/mL]
1 | C[C@@]1(c2ccc(Oc3ccccc3)cc2)OC(=O)N(Nc2ccccc2)C1=O (racemic) [famoxadone, 5-methyl-5-(4-phenoxyphenyl)-3-(phenylamino-2,4-oxazolidinedione)] | 2 | 5.5
2 | CCO[PH](=O)O [fosetyl - aluminium, fosetyl-aluminium] | >2000 | >2000
